This note sets out measurements from patent publication US20170260126A1, “SQUALENE COMPOUNDS AS MODULATORS OF LDL-RECEPTOR EXPRESSION” (OXFORD UNIVERSITY INNOVATION LIMITED, priority 2014, published 2017).

The subject of data set [1] is CHO pLDLR-Luciferase cells. Briefly: Luciferase assay (LDLR promoter-luciferase reporter in CHO cells). The settings on record: 48 hours after treatment; for EC50: Cricetulus griseus. Also noted: Emax: unit not given here. The data set is classed as cell-based, Chinese Hamster. How it is done: Chinese Hamster Ovary (CHO) cells cultivated in 2×75 […] conical flasks had their media removed and washed in 5 mL of PBS before 2 mL of Trypsin was added. The cells were swirled for a minute, before being placed in the 37° C. incubator for 5 min. The conical flasks were tapped to remove cells from the bottom, and aspirated out into 2×13 mL of Ham F-12 media containing 10% FBS and 1% L-Glutamine. The cells were then spun down at 1000 rpm for 5 min. The media was aspirated off, and the pellet from each of the two flasks was resuspended in 5 mL of media. The cells were counted, plated into a 24-well plate to give 1.5×10^5 cells/well in 500 μL of media, and placed in the 37° C. incubator. 2 mL of the remaining cells was added to 38 mL of media, plated 20 mL each into 2×75 cm^2 conical flasks, and placed in the 37° C. incubator.
After 24 h, the media was aspirated out and replaced with 500 μL Lipoprotein Deficient Serum (LPDS) media. The plate was then returned to the incubator for a further 24 h.
Following this incubation, the compound to be tested was dissolved in DMSO to give a concentration of 1 mg/mL. An appropriate amount of this solution was then added to FPS media to give 5 mL at a concentration of 10 μM. Serial dilution then gave the other required concentrations, to give testing concentrations of 0.1 nM, 1 nM, 10 nM, 30 nM, 100 nM, 1 μM and 10 μM. A 1 μM compound 49 positive control was also prepared from a stock solution in DMSO, and 0.1% DMSO control was also prepared as a negative control. Each well was then treated with 500 μL of each solution, according to the plate map shown below, and the plates were placed in the incubator.
48 hours after treatment, the cell media was aspirated and cells were washed with 500 μL of PBS. 100 μL of luciferase lysis buffer (12.5 mL 1M TrisPO4 pH 7.8, 5 mL 0.2M CDTA solution, 50 mL glycerol, 5 mL Triton-X 100, 427.5 mL H2O) was added to each sample; samples were shaken for 20 min at 4° C. before being pipetted up and down, then the plate was spun at 4500 rpm for 5 min. 75 μL of lysate was pippetted into a 96-well plate. The plate was then run on a Dynex Technologies MLX 96 Well Plate Luminometer using revalation software. 100 µL of luciferase assay buffer solution and 50 μL of Luciferin solution (200 μL Luciferin 10X, 1800 μL H2O) was dispensed each time. Response was recorded in Relative Light Units (RLUs), normalised to standards from a bicinchoninic acid (BCA) assay.
Prepared using 3 mL luciferase assay buffer (7.5 mL 1M MgSO4, 7.5 mL 1M TrisPO4 pH 7.8 buffer, 20 mL 0.1M EGTA pH 7.8, 465 mL H2O), added to 60 μL of 100 mM ATP and 6 μL of 1 M DTT solution.
On the technique in general: Reporter assays use an easily measured gene product as a stand-in for the process of interest.

For data set [2], the target named is T1, Squalene Synthase (Homo sapiens, UniProt P37268).
T1 construct: 12 μg human liver microsomes; from tissue; host or cells: human liver microsomes
T1 sequence (P37268 1-417): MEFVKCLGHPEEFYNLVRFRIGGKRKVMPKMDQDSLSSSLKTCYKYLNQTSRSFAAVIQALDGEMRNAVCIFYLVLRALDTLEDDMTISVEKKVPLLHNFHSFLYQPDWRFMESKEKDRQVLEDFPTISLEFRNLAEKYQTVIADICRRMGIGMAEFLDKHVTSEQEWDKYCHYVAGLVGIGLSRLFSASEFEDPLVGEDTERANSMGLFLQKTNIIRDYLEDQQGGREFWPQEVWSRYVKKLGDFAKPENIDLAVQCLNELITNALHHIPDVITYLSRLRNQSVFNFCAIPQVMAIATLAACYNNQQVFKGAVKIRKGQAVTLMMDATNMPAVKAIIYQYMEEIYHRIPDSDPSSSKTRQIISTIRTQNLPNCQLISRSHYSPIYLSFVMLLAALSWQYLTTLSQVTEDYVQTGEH
Briefly: Squalene Synthase activity assay in human liver microsomes with [1-3H]FPP. In kind it is biochemical. As to conditions: FIG. 1b. How it is done: Squalene Synthase activity assays were performed in 1 mL reactions containing 50 mM phosphate buffer (pH 7.4, 10 mM MgCl2), 12 μg human liver microsomes, [1-^3H]FPP (0.045 Ci/mmol) and 0.5 mM NADPH. Enzyme and inhibitors were incubated for 10 minutes at 37° C. Substrate was then added and reaction was incubated for 10 min at 37° C. Reaction was stopped by adding 1 mL of 15% KOH in ethanol and incubated at 65° C. for 30 minutes. 5 mL of petroleum ether was added and reaction was shaken for 10 minutes at room temperature. The lower aqueous phase was frozen and the upper organic phase transferred to fresh glass tubes containing 2 mL distilled water. 1.5 mL of the organic phase was transferred to a scintillation vial containing liquid scintillation fluid, and radioactivity was quantitated using a Beckman liquid scintillation counter. Data was analyzed using Prism Graphpad software.
As a representative example, compound 40 (Example 15; JM-086) was tested for squalene synthase inhibitory properties alongside compound 15a (Example 1), and the known squalene synthase inhibitor, YM-53601, as a positive control.

Data set [3] relates to CHO pLDLR-Luciferase cells. Briefly: Combination therapy experiments, luciferase compound screen with simvastatin. As to conditions: Cricetulus griseus; single agent, CHO-pLDLR-Luc, FIG. 3a/3b; read-out: EC50, increase in levels of luciferase. In kind it is cell-based, Chinese Hamster. On the procedure:
As described above, CHO WT cells transfected with pLDLR-Luc (CHO-pLDLR-Luc) were grown in HamsF-12(Sigma N4888) medium supplemented with 10% fetal bovine serum (FBS), 1% penicillin/streptomycin, 1% L-glutamine, in a 5% CO2 incubator at 37° C. CHO-pLDLR-Luc were seeded in 24-well plates at 1.5×10^5 per well. After 24h cells were changed to HamsF-12(Sigma N4888) supplemented with 10% lipoprotein deficient serum (LDPS), 1% penicillin/streptomycin, 1% L-glutamine. Compounds and simvastatin (Sigma S6196) dissolved in DMSO and Cholesterol(Sigma C8667) and 25-Hydroxycholesterol(Sigma H1015) dissolved in ethanol were added 24 h after serum starvation.
Simvastatin and compound 40 (Example 15; JM-086) were added together. The compounds were added at the exact same time, with the EC50 of either compound 40 (JM-086) or Simvastatin added into the media containing increasing doses of either compound 40 (JM-086) or Simvastatin then being added to the CHO pLDLR-Luciferase cells.

Usually melting point stands for the temperature of the solid-liquid transition. What is called EC50 is the midpoint of the concentration-response curve. For the molecule `CN(C)CCCOc1ccc(/C=C/c2ccccc2)cc1` [Compound 15a, (E)-N,N-dimethyl-3-(4-styrylphenoxy)propan-1-amine], the melting point is 75 to 77 °C. In data set [1], this molecule had an Emax of 5 and an EC50 of 39 nM. For the same molecule, in data set [2], the squalene synthase inhibition result was “dose-dependent activity”.
In data set [1], `Oc1ccc(/C=C/c2ccccc2)cc1` [Compound 32, (E)-4-styrylphenol] gave an Emax of 34 and a concentration for a half-maximal effect (EC50) of 3000 nM.
Molecule `CC(C)CCCOc1ccc(/C=C/c2ccccc2)cc1` [Compound 39, (E)-1-((4-methylpentyl)oxy)-4-styrylbenzene] had a melting point of 97 to 98 °C. In data set [1], this molecule returned an Emax of 8 and an EC50 of 1000 nM.
In the case of `OCCCOc1ccc(/C=C/c2ccccc2)cc1` [Compound 40, (E)-3-(4-styrylphenoxy)propan-1-ol], in data set [1], the Emax was found to be 32. The results for the EC50 in data set [1] and in data set [3] were 35 nM and 31.5 nM, respectively. The squalene synthase inhibition entry in data set [2] is reported as “dose-dependent activity”.
As to `COCCCOc1ccc(/C=C/c2ccccc2)cc1` [Compound 41, (E)-1-(3-methoxypropoxy)-4-styrylbenzene], the melting point lay within 77.8 to 81 °C. Further, in data set [1], the Emax came out at 44 and the midpoint of the response, the EC50, lay at 1500 nM.
Molecule `COc1ccc(/C=C/c2ccc(OCCCN(C)C)cc2)cc1` [Compound 44a, (E)-3-(4-(4-methoxystyryl)phenoxy)-N,N-dimethylpropan-1-amine] came in with a melting point of 138 to 140 °C. In data set [1], this molecule came in with an Emax of 30 and an EC50 of 260 nM.
`COc1cccc(/C=C/c2ccc(OCCCN(C)C)cc2)c1` [Compound 44b, (E)-3-(4-(3-methoxystyryl)phenoxy)-N,N-dimethylpropan-1-amine] came in with a melting point of 28 to 32 °C. In data set [1], this molecule came in with an Emax of 9 and an EC50 of 2500 nM.
The matching figures for `COc1ccccc1/C=C/c1ccc(OCCCN(C)C)cc1` [Compound 44c, (E)-3-(4-(2-methoxystyryl)phenoxy)-N,N-dimethylpropan-1-amine]: 177.6 to 180.9 °C, 8 and 310 nM.
Taken in the same sequence, the figures for `CN(C)CCCOc1ccc(/C=C/c2ccc(F)cc2)cc1` [Compound 46a, (E)-3-(4-(4-fluorostyryl)phenoxy)-N,N-dimethylpropan-1-amine] were 128.8 to 129.9 °C, 24 and 2000 nM.
Taken in the same sequence, the figures for `CN(C)CCCOc1ccc(/C=C/c2cccc(F)c2)cc1` [Compound 46b, (E)-3-(4-(3-fluorostyryl)phenoxy)-N,N-dimethylpropan-1-amine] were 56.2 to 58.6 °C, 9 and 1500 nM.
`CN(C)CCCOc1ccc(/C=C/c2ccc([N+](=O)[O-])cc2)cc1` [Compound 47a, (E)-N,N-dimethyl-3-(4-(4-nitrostyryl)phenoxy)propan-1-amine] registered a melting point of 85.2 to 85.9 °C. In data set [1], this molecule showed an Emax of 39 and an EC50 of 3000 nM.
Taken in the same sequence, the figures for `CN(C)CCCOc1ccc(/C=C/c2ccccc2[N+](=O)[O-])cc1` [Compound 47c, (E)-N,N-dimethyl-3-(4-(2-nitrostyryl)phenoxy)propan-1-amine] were 51.9 to 57.1 °C, 5 and 3000 nM.
Taken in the same sequence, the figures for `CN(C)CCCOc1ccc(/C=C/c2ccccc2)cc1F` [Compound 62, (E)-3-(2-fluoro-4-styrylphenoxy)-N,N-dimethylpropan-1-amine] were 68.2 to 72.6 °C, 15 and 3000 nM.
In data set [1], `COc1ccc(/C=C/c2ccccc2)cc1` [Compound 65, (E)-1-methoxy-4-styrylbenzene] gave an Emax of 6 and a concentration giving a half-maximal response (EC50) of 50 nM.
`CNCCCOc1ccc(/C=C/c2ccccc2)cc1` [Compound 69, (E)-N-methyl-3-(4-styrylphenoxy)propan-1-amine] came in with a melting point of 84.2 to 87.7 °C. In data set [1], this molecule had an Emax of 8 and a concentration for a half-maximal effect (EC50) of 320 nM.
For the molecule `CCC(C)(C)C(=O)O[C@H]1C[C@@H](C)C=C2C=C[C@H](C)[C@H](CC[C@@H]3C[C@@H](O)CC(=O)O3)[C@H]21` [Simvastatin, reference compound], in data set [3], the EC50 stood at 128 nM.
